In US8377886B2, “Use of gamma secretase inhibitors and notch pathway inhibitors for treatment and prevention of renal disease” (Albert Einstein College of Medicine of Yeshiva University, priority 2007, dated 2013):

Tests used:
podocytes [1] = assay: ICN1 induced podocyte apoptosis, AnnexinV staining; type: cell-based, mouse; details: for ICN1 induced increase in annexinV positive cell number: tamoxifen 1.5 μM, counted 24 hrs after induction, GSIXX 4 μM, pifithrin-alpha 15 μM
Experimental: (§1) Infection of Podocytes. Cultivation of conditionally immortalized mouse podocytes was performed as described^41. Briefly, cells were propagated in the undifferentiated state on type1 collagen at 33° C. in RPMI 1640 in the presence of 10% FBS (Hyclone) and 20 U/ml interferon γ (Sigma Chemical Co., St Louis, Mo.). To induce differentiation, cells were maintained at 37° C. without interferon for 10 days. Podocytes were infected with MIGR-ICN1-EGFP (kind gift of Dr Warren Pear, University of Pennsylvania) or pBMN-EGFP (Orbigen) retrovirus. Briefly vectors were transfected into Phoenix Eco packaging cells (Orbigen) and supernatant was harvested 60-72 hrs after transfection. Podocytes were infected with virus containing supernatant (3-4 times, every 6 hours) in the presence of polybrene […]. After 24 hrs of infection, the medium was changed and cells were either treated with tamoxifen to induce ICN1 expression or left untreated. Infection efficiency was estimated under fluorescence microscope by the presence of GFP positive cells as it ranged from 70-80%.
AnnexinV staining. AnnexinV staining was performed using AnnexinV-Alexa 568 staining kit (Roche). Cells were cultured in 24 well plates, washed and incubated with AnnexinV-Alexa 568 in incubation buffer according to manufacturer's instruction. Cells were washed, and fluorescent labeled cells were counted. Total number of cells were counted by DAPI counterstain. Nuclear condensation was assessed by DAPI staining.

ICN1 = assay: TGFβ induced increase of ICN1 levels in cultured podocytes, Western blot; type: cell-based, mouse; details: 5 ng/ml TGFβ; 100 nM GSI XX; 10 μM SB203580, PD or LY; GSI IX and GSI X data not shown
Experimental: as §1
Western Blotting. Cells were lysed in RIPA buffer in the presence of protease and phosphatase inhibitors; equal amount (30 μg) of protein was loaded on 10% SDS gels. Gels were transferred to PVDF membranes (Bio-Rad), blocked in 5% milk and incubated with the primary antibody (1:1,000 dilution) overnight at 4° C. in 1% milk. Membranes were incubated with HRP conjugated anti-mouse or anti-rabbit secondary antibody (Jackson Immunologicals) for 1 hr at room temperature and developed using ECL method (Pierce). The following primary antibodies were used in this study; phospho-p38 (#4631), total p38 (#9217), phospho-AKT (#4051), total AKT (#9272), cleaved PARP, cleaved caspase3, phospho-53 were from Cell Signaling, phospho-JNK, p53, p21 were from Santa Cruz Val^1744ICN1 and β-actin antibody was purchased from Abcam (Cambridge, Mass.).

[2] = test system: Smad3 and Akt phosphorylation; assay: TGFβ induced Smad3 and Akt phosphorylation in podocytes, Western blot; type: cell-based, mouse; details: 5 ng/ml TGFβ; GSI XX 1 μM
Experimental: as §1
(§2) Western Blotting. Cells were lysed in RIPA buffer in the presence of protease and phosphatase inhibitors; equal amount (30 μg) of protein was loaded on 10% SDS gels. Gels were transferred to PVDF membranes (Bio-Rad), blocked in 5% milk and incubated with the primary antibody (1:1,000 dilution) overnight at 4° C. in 1% milk. […]

p53 = assay: TGFβ induced phosphorylated p53 levels in podocytes, Western blot; type: cell-based, mouse; details: after 4 hrs of incubation with TGFβ
Experimental: as §1, §2

podocytes [3] = assay: TGFβ induced podocyte apoptosis, annexinV positive cell number; type: cell-based, mouse; details: 24 hrs following TGFβ; pre-incubation GSIXX 1 μM or pifithrinα 15 μM
Experimental: as §1
AnnexinV staining. AnnexinV staining was performed using AnnexinV-Alexa 568 staining kit (Roche). […] Cells were washed, and fluorescent labeled cells were counted. Total number of cells were counted by DAPI counterstain. Nuclear condensation was assessed by DAPI staining.

PAN treated rats = assay: PAN induced nephrotic syndrome in rats; type: in vivo, rat
Experimental: Male Sprague Dawley rats (75-100 gr˜4 weeks old) were purchased from Charles Rivers. Animals were injected with puromycin aminonucleoside 20 mg/kg ip ×1. BDZ (dissolved in Methocell, Tween-80) was administered ip 500 μg/100 gr rat once a day. Animals were sacrificed on day 8 after PAN administration.
Phenotypic analysis. Albuminuria was determined using Mouse or Rat Albumin specific ELISA kits (Exocell and Bethyl Laboratories) and urine creatinine was determined using Creatinine companion (Exocell), following manufacturer's protocol.
Histologic analysis. Histologic analysis was performed on formalin fixed paraffin embedded kidney sections that was stained with Periodic-Acid-Schiff (PAS) or Gomori Trichrome. Slides were examined and pictures were taken with Nikon Eclipse TE300 microscope and SPOT Diagnostic CCD camera. Transmission electron microscopy was performed in the Analytical Imaging Facility at AECOM on glutaraldehyde fixed, epoxy embedded kidney samples stained with uranyl acetate and lead citrate. Samples were evaluated using JEOL 1200EX, electron microscope (AECOM, Analytical Imaging Facility).
Immunohistochemistry. Immunohistochemistry was performed on formalin fixed paraffin embedded kidney sections using the following primary antibodies Val^1744ICN1 (Abcam), ICN2 (Abeam). Staining was visualized using peroxidase conjugated anti mouse of anti rabbit Vectastain Elite kit and DAB (Vector Labs). Terminal d-UTP labeling (TUNEL) staining was performed using TUNEL kit (Chemicon) following manufacturer's instructions. For fluorescent labeling, 5 μm frozen sections were fixed in ice cold acetone, blocked with 10% horse serum and incubated with primary antibodies, WT-1 (Santa Cruz), nephrin (kind gift of Dr Lawrence Holzman, University of Michigan), synaptopodin and podocin (Sigma-Aldrich), p21 (Santa Cruz), and developed using FITC conjugated anti-mouse secondary antibody or Cy3 conjugated anti-rabbit antibodies (Jackson laboratory) and mounted with Fluoromount).
Glomerular isolation. Glomerular isolation was performed using serial sieving of 120, 100 and 71 μm diameter.
QRT-PCR. RNA was prepared from isolated glomeruli or from podocytes using RNAeasy Mini kit (Qiagen, Valencia). The quality was analyzed on agarose gels and the quantity was measured on NanoDrop. 1 ug RNA was reverse transcribed using cDNA Archival Kit (Applied Biosystems). QRT-PCR analysis was performed using ABI 7900HT-Sequence Detection System. SYBR Green Master Mix and 3-step standard cycling conditions and sequence specific primers for QRT-PCR analysis were used. Melting curve was examined to verify that a single product was amplified. For quantitative analysis all samples were normalized to ubiquitin C and HPGRT gene expression using the ΔΔCT value method.
It was examined whether the Notch pathway inhibition (with the use of a gamma-secretase inhibitor) could be used as a potential strategy for the treatment of albuminuric glomerular disease^31. Rats we treated with DBZ 500 μg/100 gr ip. daily stating 12 hrs prior to PAN injection. Animals were sacrificed on day 8 as the PAN treated rats appeared moribund and most of them had severe nephrotic syndrome (ascites and edema). DBZ treatment normalized the Notch pathway gene expression increase of PAN treated rats (FIG. 1e, FIG. 12a). […] Similarly, expression of p53 and p21 was lower in BDZ treated rats compared to PAN only injected animals (FIG. 110.

Balb/c mice = assay: Adriamycin (doxorubicin) induced nephrotic syndrome of mice; type: in vivo, mouse; details: male Balb/c mice, 12 days following 12 mg/kg doxorubicin (adriamycin); doxorubicin only 2659 μg/mg creatinine
Experimental: Adriamycin-induced nephrotic syndrome was induced in 8 weeks old male Balb/c mice (n=10/per each groups) via intravenous injection (to the tail vein) of 12 mg/kg adriamycin. Animals were sacrificed 12 days following the injection. All animal studies were approved by the Animal Care Committee at the Albert Einstein College of Medicine (AECOM). Animals were maintained under specific pathogen free conditions. Phenotypic analysis. Albuminuria was determined using Mouse or Rat Albumin specific ELISA kits (Exocell and Bethyl Laboratories) and urine creatinine was determined using Creatinine companion (Exocell), following manufacturer's protocol.

FA-treated mice = assay: Murine folic acid (FA)-induced nephrotoxicity model; type: in vivo, mouse; details: FA mice treated for 1 week with DBZ
Experimental: Experiments were conducted using the murine folic acid (FA)-induced nephrotoxicity model, which is characterized by acute tubular injury followed by both tubular regeneration and chronic changes such as patchy interstitial fibrosis. Strong upregulation was found for mRNA levels of Notch 1-4, the ligands Jagged 1 and 2, delta like-1 and -4, and the downstream target genes Hes1, Hey1, and HeyL in total kidney homogenates 1 day after FA injection, which remained increased up to 1 week.
To further investigate the role of Notch in FA-induced renal injury, mice were treated for 1 week with the gamma-secretase inhibitor (GSI) dibenzazepine (DBZ) that blocks activation of the Notch pathway by interfering with Notch cleavage. […] In control kidneys, large numbers of interstitial fibroblasts and significant tubulointerstitial fibrosis were observed indicating a misdirected renal regeneration.

[4] = test system: unilateral ureteral obstruction model; assay: Unilateral ureteral obstruction model of renal tubulointerstitial fibrosis; type: in vivo, mouse; details: animals injected with GSI XX (DBZ)
Experimental: Increased Notch pathway gene expression was also observed in mouse models of chronic tubulointerstitial fibrosis (unilateral ureteral obstruction) and in patients with chronic renal disease and tubulointerstitial fibrosis. […] The role and regulation of Notch pathway genes were also examined in other models of tubulointerstitial fibrosis. […] To examine the role of Notch activation in this model, animals were injected with GSI XX (DBZ). DBZ reduced the expression of Notch target gene HeyL and reduced expression of pro-fibrotic genes collagen, fibronectin and alpha smooth muscle action.

p21 = assay: TGFβ induced p21 protein expression in podocytes, Western blot; type: cell-based, mouse; details: after 24 hrs TGFβ
Experimental: as §1, §2

[5] = PAN rats, DBZ 500 μg/100 gr ip daily

## C[C@H](NC(=O)Cc1cc(F)cc(F)c1)C(=O)N[C@@H]1C(=O)N(C)c2ccccc2-c2ccccc21 [DBZ, (S,S)-2-[2-(3,5-Difluorophenyl)acetylamino]-N-(5-methyl-6-oxo-6,7-dihydro-5H-dibenzo[b,d]azepin-7-yl)propionamide]
Podocytes [1]; listed as GSI XX
  ICN1 induced increase in annexinV positive cell number: did not alter
Podocytes [1]; listed as GSIXX
  ICN1 induced increase in annexinV positive cell number: did not affect
ICN1
  TGFβ induced increase of ICN1 levels: fully sensitive
[2]
  TGFβ induced Smad3 and Akt phosphorylation: did not interfere
p53
  TGFβ induced increase of phosphorylated p53 levels: fully sensitive
Podocytes [3]
  TGFβ induced increase in annexinV positive cell number: prevented
PAN treated rats; DBZ 500 μg/100 gr ip daily from 12 hrs prior to PAN, QRT-PCR
  Notch pathway gene expression increase of PAN treated rats: normalized
PAN treated rats; PAN rats, 500 μg/100 gr ip daily, compared to PAN only, after 6 days
  albuminuria (albumin/creatinine ratio): significantly less
PAN treated rats; [5]
  foot process effacement (EM analysis): almost fully abrogated
  podocyte apoptosis (TUNEL staining): fully prevented
PAN treated rats; PAN rats, DBZ 500 μg/100 gr ip daily, day 8
  decrease in nephrin and podocin levels (mRNA and protein): protected
PAN treated rats; PAN rats, whole kidney lysates QRT-PCR, compared to PAN only
  expression of p53 and p21: lower
Balb/c mice
  albuminuria: 800 μg/mg creatinine
FA-treated mice
  FA-induced upregulation of fibrotic remodeling genes (TGF-β, fibronectin, MMP-2 and 9): greatly reduced
  increase in serum creatinine: did not affect
  rate of tubular apoptosis: did not affect
  rise in HeyL expression: completely blunted
  tubular damage scores: did not affect
[4]
  expression of Notch target gene HeyL: reduced
  expression of pro-fibrotic genes collagen, fibronectin and alpha smooth muscle action: reduced
  tubulointerstitial fibrosis (evaluated on PAS staining): reduced

## C[C@H](NC(=O)Cc1cc(F)cc(F)c1)C(=O)N[C@H](C(=O)OC(C)(C)C)c1ccccc1 [GSI IX, N—[N-(3,5-Difluorophenacetyl-L-alanyl)]-S-phenylglycine t-Butyl Ester]
ICN1
  TGFβ induced increase of ICN1 levels: fully sensitive

## CC(C)C[C@H](NC(=O)[C@H](Cc1ccccc1)C[C@@H](O)[C@H](Cc1ccccc1)NC(=O)OC(C)(C)C)C(=O)N[C@@H](Cc1ccccc1)C(N)=O [GSI X, {1S-Benzyl-4R-[1-(1S-carbamoyl-2-phenethylcarbamoyl)-1S-3-methylbutylcarbamoyl]-2R-hydroxy-5-phenylpentyl}carbamic Acid tert-butyl Ester]
ICN1
  TGFβ induced increase of ICN1 levels: fully sensitive

## COc1cccc(-c2cc(=O)c3ccccc3o2)c1N [PD98059]
ICN1
  TGFβ induced increase of ICN1 levels: not sensitive

## C[S+]([O-])c1ccc(-c2nc(-c3ccncc3)c(-c3ccc(F)cc3)[nH]2)cc1 (stereo not drawn) [SB203580]
Podocytes [1]
  ICN1 induced increase in annexinV positive cell number: did not alter
ICN1
  TGFβ induced increase of ICN1 levels: not sensitive

## Cc1ccc(C(=O)Cn2c3c(sc2=N)CCCC3)cc1 [pifithrin alpha]
Podocytes [1]
  ICN1 induced increase in annexinV positive cell number: decreased
p21
  TGFβ induced increase in p21 protein expression: blocked
Podocytes [3]
  TGFβ induced increase in annexinV positive cell number: prevented

## Z-vad
Podocytes [1]; podocytes with tamoxifen-induced ICN1, pretreatment with Z-vad (10 μM) or Z-LEHD (10 μM)
  ICN1 induced apoptosis (AnnexinV/GFP positive cells): prevented
